Measurements published in patent US10179174B2, “Method for inducing an immune response and formulations thereof” (priority 2011, dated 2019).

Columns and labels:
BM cells (iDCs) = assay: Flow cytometry phenotyping of BM cells (iDCs) incubated with LEAPS heteroconjugates or LPS; type: cell-based, BALB/c mice; details: 14.5 micromoles per well (about 10^6 cells), incubation 24, 48 or 72 hours
CD4 = details: literature; cited from earlier work
HSV-1 virus = details: Peptide J alone; Taylor et al.; cited from earlier work

With lipopolysaccharide [LPS] the “upregulation for CD80, CD86 and MHC II compared to untreated cells” value (BM cells (iDCs)) was “significant upregulation”.

In the case of “DGQEEKAGVVSTGLI (H-DGQEEKAGVVSTGLI-NH2) [CEL-1000, ICBL peptide derived from the β-chain of MHC II]”, the “binding to CD4” value (CD4) is listed as “bind to CD4”.

For “DLLKNGERIEKVE [J Peptide, ICBL derived from amino acids 38-50 of the β-2-microglobulin chain of the MHC I molecule]”, the protection against infection (HSV-1 virus) is listed as “does not induce protection against infection”.
